Reference: patent US20090054376A1, “BENZOFURAN DERIVATIVES WITH THERAPEUTIC ACTIVITIES” (Pharmos Corporation, priority 2005, published 2009)

How the values were obtained:
[1] = test system: CB1 related cannabimimetic activity; test: Safety: body temperature, catalepsy, spontaneous locomotor activity, elevated plus maze, sensitivity to touch; assay type: in vivo, ICR male mice; conditions: 2 mg/kg i.v.
Experimental: In the present study, impact of compounds of the invention on the central nervous system was measured by monitoring the body temperature, catalepsy and spontaneous locomotor activity of rodents. These activities are part of the Tetrad assays which are indicative, if all parameters are affected, of CB1 mediated activity. In addition, lack of CNS psychomimetic effect was assessed in the elevated plus maze model. Finally, sensitivity to touch was determined in order to evaluate peripheral CB1 related activity.
ICR male mice (average body weight 25 g, Harlan, Israel) were administered the compounds of the invention i.v. at a dose of 2 mg/kg and at a volume dose of 5 ml/kg. The psychoactive cannabinoid HU-210 was used as positive control at the 100-fold lower dose of 0.02 mg/kg i.v. The following measurements were made starting 15 minutes after compound administration. All tests were completed for each animal within approximately 10 minutes. Rectal temperature was monitored using a thermistor probe (YSI model 400, USA). Spontaneous locomotion was assessed using the open field methodology. The number of squares crossed by the animals were recorded and analyzed during a period of three minutes. At the end of the open field test, the animals were tested for catalepsy symptoms. This was carried out by gently forcing the animal to stand on its hind paws when its front paws are holding on an elevated beam. The time for the animal to step down of the beam was measured in seconds. A normal animal withdraws the beam immediately whereas cataleptic animal tend to stay on the beam. The longer the animal stays leaning on the beam, the more cataleptic the animal is. The behavior of the animals was then assessed in the elevated plus maze. The elevated plus maze consists of two open arms and two arms that are enclosed by high walls (arms 30×10 cm, wall height 20 cm). The elevated plus maze is usually elevated 80 cm above the floor. The mouse is placed on the maze head facing an open arm, and the time spent in the different compartments of the maze (open arms, closed arms and central area) are measured for the next 5 minutes. Results are expressed as percent of the time spent in the open arms, normal animals preferring to stay in the closed arms of the maze. Finally, animals were gently touched by an observer blinded for the treatment group and their sensitivity scored according to the following scale: 0 not sensitive, 1 sensitive and 2 highly sensitive. Results are expressed as average±SEM. At the end of the study, the animals were euthanized.

[2] = test system: visceral pain writhing responses; test: Visceral pain, acetic acid induced writhing responses; assay type: in vivo, Male ICR mice; conditions: for inhibition in vivo at 2 mg/kg: Mus musculus, iv, read-out: Percent Inhibition of Visceral Pain Writhing Responses; for inhibition in vivo at 2 mg/kg / Percent Inhibition of Visceral Pain Writhing Responses: single dose 2 mg/kg i.v., compared to untreated group
TNF-α = test: Cytokine secretion into blood circulation in LPS injected mice, TNF-α; assay type: in vivo, Balb/C female mice; conditions: 2 mg/kg i.v., LPS 3 mg/kg i.p., plasma 90 minutes after LPS
Experimental: (§1) Balb/C female mice (average body weight 20 g, Harlan, Israel) were injected i.v. at a volume dosage of 5 ml/kg with either vehicle or test compounds at a dose of 2 mg/kg. Each treatment group comprised at least 9 animals. Immediately after compound or control administration, the mice were injected i.p. with 3 mg/kg LPS (E. coli 055:B5, Calbiochem). Ninety minutes after LPS induction, blood samples were collected into heparanized test tubes. Plasma was separated by centrifugation (10,000 rpm for 5 minutes at RT) and stored at −20° C. until assayed. The level of the inflammatory mediator under study, IL-1β, IL-6, IL-10 or TNF-α, was assayed by ELISA techniques.
(§2) The technique used to quantify the amount of a given protein in a liquid sample, either tissue culture supernatant or body fluid, is based on Enzyme Linked ImmunoSorbent Assay (ELISA) methodology. Either commercially available or established in house, the assay is based on the capture of the protein of interest by specific antibodies bound to the bottom of an ELISA plate well. Unbound material is washed away, the captured protein is then exposed to a secondary antibody generally labeled with horseradish peroxidase (HRP) or alkaline phosphatase (ALP). Again the unbound material is washed away, and the samples are then incubated with the appropriate substrate yielding a colorimetric reaction. The reaction is stopped and reading is performed in a spectrophotometer at the appropriate wavelength. Samples are tested at least in duplicate and the appropriate standard curve, consisting of serial dilutions of the recombinant target protein, is incorporated on each plate. The concentration of the protein in the sample is calculated from the standard curve.
(§3) The results are expressed as percent inhibition of secretion, taking into account the maximal cytokine concentration in vehicle “treated” animals and the baseline level in naïve animals. […] Inhibition above 50% was considered highly significant.

IL-1β = test: Cytokine secretion into blood circulation in LPS injected mice, IL-1β; assay type: in vivo, Balb/C female mice; conditions: 2 mg/kg i.v., LPS 3 mg/kg i.p., plasma 90 minutes after LPS
Experimental: as §1, §2, §3

IL-6 = test: Cytokine secretion into blood circulation in LPS injected mice, IL-6; assay type: in vivo, Balb/C female mice; conditions: 2 mg/kg i.v., LPS 3 mg/kg i.p., plasma 90 minutes after LPS
Experimental: as §1, §2, §3

IL-10 = test: Cytokine secretion into blood circulation in LPS injected mice, IL-10; assay type: in vivo, Balb/C female mice; conditions: 2 mg/kg i.v., LPS 3 mg/kg i.p., plasma 90 minutes after LPS
Experimental: as §1, §2, §3

Compound	adverse cannabimimetic activities in any of the parameters monitored [1]	inhibition in vivo at 2 mg/kg [2]	Inhibition of cytokine secretion into blood circulation, TNF-α (TNF-α)	Inhibition of cytokine secretion into blood circulation, IL-1β (IL-1β)	Inhibition of cytokine secretion into blood circulation, IL-6 (IL-6)	Inhibition of cytokine secretion into blood circulation, IL-10 (IL-10)	also measured
CCCCCCC(C)(C)c1cc(O)c2c3c(oc2c1)C(=O)CCC3(C)C [Compound C6M-9, 7-(1,1-Dimethylheptyl)-9-hydroxy-1,1-dimethyl-2,3-dihydro-1H-dibenzofuran-4-one]	None	38%	–	–	–	–	–
CCCCCCC(C)(C)c1cc(O)c2c(c1)OC1C=CCCC21 (stereo not drawn) [Compound C6S-2, 3-(1,1-Dimethylheptyl)-5a,8,9,9a-tetrahydro-dibenzofuran-1-ol]	None	–	NO (NO indicates that the compound tested did not significantly affect the level of cytokine in plasma of LPS injected mice and that its activity is comparable to vehicle, within ±20% from this control)	56%	NO (NO indicates that the compound tested did not significantly affect the level of cytokine in plasma of LPS injected mice and that its activity is comparable to vehicle, within ±20% from this control)	68%	–
CCCCC(C)(C)c1cc(O)c2c(c1)OC1(C)CCCC21 (stereo not drawn) [Compound C5S-1, 6-(1,1-dimethylpentyl)-8a-methyl-2,3,3a,8a-tetrahydro-1H-8-oxa-cyclopenta[α]inden-4-ol]	None	–	77%	41%	28%	75%	Percent Inhibition of Visceral Pain Writhing Responses [2]: 41%
CCCCC(C)(C)c1cc(O)c2c(c1)OC1C2CCC(C)(C)C1O (stereo not drawn) [Compound C6S-7, 3-(1,1-dimethylpentyl)-7,7-dimethyl-5a,6,7,8,9,9a-hexahydro-dibenzofuran-1,6-diol]	None	40%	–	–	–	–	–
CCCCC(C)(C)c1cc(O)c2c(c1)OC1CCCCC21 (stereo not drawn) [Compound C6S-3, 3-(1,1-dimethylpentyl)-5a,6,7,8,9,9a-hexahydro-dibenzofuran-1-ol]	None	–	78%	NO (NO indicates that the compound tested did not significantly affect the level of cytokine in plasma of LPS injected mice and that its activity is comparable to vehicle, within ±20% from this control)	NO (NO indicates that the compound tested did not significantly affect the level of cytokine in plasma of LPS injected mice and that its activity is comparable to vehicle, within ±20% from this control)	79%	decrease of number of squares crossed ([1]; non-significant): 13%; number of squares crossed (spontaneous locomotor activity) ([1]; period of three minutes, vehicle 75.63±6.24): 65.80±7.04
CCCCCCC(C)(C)c1cc(O)c2c(c1)OC1C(O)CCCCC21 (stereo not drawn) [Compound C7S-2, 2-(1,1-dimethylheptyl)-5,6,7,8,9,9a-hexahydro-4bH-10-oxa-benzo[α]azulen-4,9-diol]	–	> 90%	–	–	–	–	inhibition of writhing responses ([2]; 0.075 mg/kg i.v., compared to vehicle): 28%; inhibition of writhing responses ([2]; 0.1 mg/kg i.v.): 74%; inhibition of writhing responses ([2]; 0.25 mg/kg i.m.): 35%; inhibition of writhing responses ([2]; 0.5 mg/kg i.m.): 90%; inhibition of pain responses ([2]; 0.5 mg/kg i.v.): totally eradicated pain responses; inhibition of pain response ([2]; 1 mg/kg i.m.): totally abrogated the pain response; inhibition of writhing responses ([2]; 10 mg/kg p.o.): 58%; inhibition of writhing responses ([2]; 20 mg/kg p.o.): 83%; fold more potent than morphine ([2]; IC50 in visceral pain, i.v.): 12 fold; IC50 in visceral pain ([2]; i.m. administration, calculated): about 0.27 mg/kg; IC50 in visceral pain ([2]; i.v., estimated or calculated from dose range): 0.09 mg/kg; IC50 in visceral pain ([2]; p.o. administration, calculated): about 6.6 mg/kg; IC50 in visceral pain ([2]; subcutaneously, estimated): about 1 mg/kg
CCCCCCC(C)(C)c1cc(O)c2c(c1)OC1(C)CCCC21 (stereo not drawn) [Compound C5S-2, 6-(1,1-dimethylheptyl)-8a-methyl-2,3,3a,8a-tetrahydro-1H-8-oxa-cyclo-penta[α]inden-4-ol]	None	–	38%	53%	NO (NO indicates that the compound tested did not significantly affect the level of cytokine in plasma of LPS injected mice and that its activity is comparable to vehicle, within ±20% from this control)	64%	Percent Inhibition of Visceral Pain Writhing Responses [2]: 72%
